Assay results taken from paper PMC6271626, “Design, Synthesis, and Biological Evaluation of Artemisinin-Indoloquinoline Hybrids as Potent Antiproliferative Agents” (Molecules, 2014).
Where “and” joins values, the source holds several entries; their conditions need not be identical. Equal values may be shown once. Where a name gives a salt, the structure may show the parent alone. Read-outs that look alike come from different tables or passages of the source.

Columns and labels:
[1] = test system: human leukemia MV4-11 cell line; details: MV4-11 human leukemia cell line; cited from earlier work
[2] = test system: HCT116, human colon cancer cell line; assay: Antiproliferative assay in vitro, SRB, HCT116; assay type: cell-based; details: mean ± SD
Description: (§1) MV4-11 cells were cultured in the RPMI 1640 medium (IIET, Wroclaw) supplemented with 2 mM L-glutamine and 1.0 mM sodium pyruvate, 10% fetal bovine serum (all from Sigma Aldrich, Germany). HCT116 and A549 cells were cultured in the RPMI1640 + OptiMEM (50:50) medium (IIET, Wroclaw) supplemented with 2 mM L-glutamine and 5% fetal bovine serum (all from Sigma Aldrich, Germany), BALB/3T3 cells were cultured in Dulbecco medium (IIET, Wroclaw) supplemented with 2 mM L-glutamine and 1.0 mM sodium pyruvate, 10% fetal bovine serum (all from Sigma Aldrich, Germany). All culture medium was supplemented with 100 units/mL penicillin and […] streptomycin (both from Polfa, Tarchomin S.A., Warsaw, Poland). All cell lines were grown at 37 °C with 5% CO2 humidified atmosphere.
(§2) Test solutions of the compounds tested (1 mg/mL) were prepared by dissolving the substances in 100 μL of DMSO completed with 900 μL of tissue culture medium. Afterward, the tested compounds were diluted in culture medium to reach the final concentrations of 10, 1, 0.1, 0.01 μg/mL. Twenty four hours prior to the addition of the tested compounds, the cells were plated in 96-well plates (Sarstedt, Germany) at a density of 1 × 10^4 or 0.5× 10^4 (HCT116) cells per well. The assay was performed after 72 h of exposure to varying concentrations of the tested agents. The in vitro cytotoxic effect of all agents was examined using the MTT (for MV4-11 cell line) or SRB (for A549, HCT116 and BALB/3T3 cell lines) assay. The results were calculated as an IC50 (inhibitory concentration 50)–the dose of tested agent that inhibits proliferation of 50% of the cell population. Each compound in each concentration was tested in triplicate in a single experiment, which was repeated 3–5 times.

[3] = test system: normal mice fibroblast BALB/3T3; assay: Cytotoxicity against normal fibroblasts, SRB, BALB/3T3; assay type: cell-based, mouse; details: mean ± SD
Description: as §1, §2

[4] = test system: A549, human non-small-cell lung adenocarcinoma cell line; assay: Antiproliferative assay in vitro, SRB, A549; assay type: cell-based; details: mean ± SD
Description: as §1, §2

[5] = test system: human leukemia MV4-11 cell line; assay: Antiproliferative assay in vitro, MTT, MV4-11; assay type: cell-based; details: mean ± SD
Description: as §1, §2

[6] = test system: A549, human non-small-cell lung adenocarcinoma cell line; parameters: method as in PMID 21207937; details: cited from earlier work
[7] = test system: HCT116, human colon cancer cell line; parameters: method as in PMID 21207937; details: cited from earlier work
[8] = Homo sapiens, HCT-116, 72 h exposure
[9] = Mus musculus, BALB/3T3, 72 h exposure
[10] = Homo sapiens, A549, 72 h exposure
[11] = Homo sapiens, MV4-11, 72 h exposure

| IC50 [2, 8] [nM] | IC50 [4, 10] [nM] | IC50 [5, 11] [nM] | SMILES | IC50 [3, 9] [nM] | IC50 ([5]; 72 h exposure) | IC50 ([2]; 72 h exposure) [nM] | IC50 ([3]; 72 h exposure) [nM] | IC50 ([4]; 72 h exposure) [nM] | other results |
| --- | --- | --- | --- | --- | --- | --- | --- | --- | --- |
| – | – | – | Cn1c2nc3ccccc3c-2c(NCCCN)c2ccccc21 [Compound 4a, N^1-(5-methyl-5H-indolo[2,3-b]quinolin-11-yl)propane-1,3-diamine] | – | – | – | – | – | IC50 [1]: 66 ± 23 nM |
| 130 ± 14 | 649 ± 80 | – | COC(=O)c1ccc2c(c1)c(NCCCN)c1c3ccccc3nc-1n2C [Compound 4d, methyl 11-(3-aminopropylamino)-5-methyl-5H-indolo[2,3-b]quinoline-2-carboxylate] | 768 ± 155 | – | – | – | – | IC50 [1]: 86 ± 20 nM |
| 258 ± 107 | 172 ± 52 | 124 ± 10 | NCCCNc1nc2ccccc2c2[nH]c3ccccc3c12 [Compound 6, 6-(3-aminopropylamino)-11H-indolo[3,2-c]quinoline] | 1050 ± 127 | – | – | – | – | – |
| – | – | – | CC1CCC2C(C)C(OC(=O)CCC(=O)NCCCNc3c4c5ccccc5nc-4n(C)c4ccccc34)OC3OC4(C)CCC1C32OO4 (centres unmarked) [Compound 7a, Artesunate-[N^1-(5-methyl-5H-indolo[2,3-b]quinolin-11-yl)propane-1,3-diamine] hybrid] | – | 286 ± 79 nM | – | – | – | – |
| – | – | – | CC1CCC2C(C)C(OC(=O)CCC(=O)NCC(C)(C)CNc3c4c5ccccc5nc-4n(C)c4ccc(Cl)cc34)OC3OC4(C)CCC1C32OO4 (centres unmarked) [Compound 7b, Artesunate-[N^1-(2-chloro-5-methyl-5H-indolo[2,3-b]quinolin-11-yl)-2,2-dimethjylpropane-1,3-diamine] hybrid] | – | ~72 nM and 72 nM | 893 ± 397 | 6420 ± 996 | 4560 ± 2090 | – |
| – | – | – | CC1CCC2C(C)C(OC(=O)CCC(=O)NCC(C)(C)CNc3c4c5ccccc5nc-4n(C)c4ccc(Br)cc34)OC3OC4(C)CCC1C32OO4 (centres unmarked) [Compound 7c, Artesunate-[N^1-(2-bromo-5-methyl-5H-indolo[2,3-b]quinolin-11-yl)-2,2-dimethylpropane-1,3-diamine] hybrid] | – | 242 ± 31 nM | – | – | – | – |
| – | – | – | COC(=O)c1ccc2c(c1)c(NCCCNC(=O)CCC(=O)OC1OC3OC4(C)CCC5C(C)CCC(C1C)C35OO4)c1c3ccccc3nc-1n2C (centres unmarked) [Compound 7d, Artesunate-[methyl 11-(3-aminopropylamino)-5-methyl-5H-indolo[2,3-b]quinoline-2-carboxylate] hybride] | – | 148 ± 15 nM | 1760 ± 329 | 4950 ± 220 | 3660 ± 535 | – |
| – | – | – | COC(=O)c1ccc2c(c1)c(NCC(C)(C)CNC(=O)CCC(=O)OC1OC3OC4(C)CCC5C(C)CCC(C1C)C35OO4)c1c3ccccc3nc-1n2C (centres unmarked) [Compound 7e, Artesunate-[methyl 11-(3-amino-2,2-dimethylpropylamino)-5-methyl-5H-indolo[2,3-b]quinoline-2-carboxylate] hybrid] | – | 75 ± 1 nM | 2210 ± 687 | 5940 ± 1160 | 5060 ± 911 | – |
| 557 ± 85 | 1330 ± 586 | 286 ± 127 | CC1CCC2C(C)C(OC(=O)CCC(=O)NCCCNc3c4ccccc4nc4c3[nH]c3ccccc34)OC3OC4(C)CCC1C32OO4 (centres unmarked) [Compound 8, Artesunate-[11-(3-aminopropylamino)-10H-indolo[3,2-b]quinoline] hybrid] | 2720 ± 731 | – | – | – | – | – |
| 855 ± 235 | 1810 ± 516 | 128 ± 36 | CC1CCC2C(C)C(OC(=O)CCC(=O)NCCCNc3nc4ccccc4c4[nH]c5ccccc5c34)OC3OC4(C)CCC1C32OO4 (centres unmarked) [Compound 9] | 4980 ± 471 | – | – | – | – | – |
| – | – | – | C[C@H]1[C@@H](O)O[C@@H]2O[C@@]3(C)CC[C@H]4[C@H](C)CC[C@@H]1[C@@]24OO3 [DHA (2), dihydroartemisinin] | – | – | – | – | – | IC50 [6]: > 20000 nM; IC50 [7]: 1340 ± 1060 nM |
| – | – | – | N.N.[Cl][Pt][Cl] [cisplatin, reference compound] | – | 2820 ± 450 nM | 9460 ± 1300 | 9500 ± 500 | 8960 ± 3330 | – |
| – | – | 6 ± 2 | COc1cccc2c1C(=O)c1c(O)c3c(c(O)c1C2=O)C[C@@](O)(C(=O)CO)C[C@@H]3O[C@H]1C[C@H](N)[C@H](O)[C@H](C)O1 [doxorubicin HCl, reference compound] | – | – | – | – | – | – |
